Literature values in patent US20040235767A1, “Anti-angiogenic and immunotherapeutic compositions for cancer treatment” (priority 2004, published 2004).

Tested on: large tumours
Details: previously reported

In the case of `Cc1ccc2c(=O)c3cccc(CC(=O)O)c3oc2c1C` [DMXAA, 5,6-dimethylxanthenone-4-acetic acid], the “effect on large tumours in combination with B7-1-mediated immunotherapy” value is given as “eradication of large tumours”.
